Assay results as given in US9522167B2, “Alphanizomenon flos aquae preparation, extracts and purified components thereof for the treatment of neurological, neurodegenerative and mood disorders” (Nutratec, s.r.l., priority 2006, dated 2016).

Experiments:
[1] = system: MAO-B; conditions: literature values (ref. 45), cited from earlier work; for IC50: read-out: IC50 of MAO-B inhibition; for Ki: read-out: Ki of MAO-B inhibition
[2] = system: neurons; assay: Neuroprotection against glutamate-induced apoptosis of cultured neurons (DAPI staining); assay type: cell-based; conditions: glutamate 100 μM plus 10 μM glycine, 30 min pre-incubation, apoptosis after 24 h
Description: The exposure of neurons to glutamate was carried according to a slightly modified method (50): culture medium was removed and neurons were washed once with prewarmed 37° C. buffered Hanks' solution (5.26 mM KCl, 0.43 mM KH2H2PO4, 132.4 mM NaCl, 4.09 mM NaHCO3, 0.33 mM Na2HPO4, 20 mM glucose, 2 mM CaCl2, and 20 mM HEPES, pH 7.4) and pre-incubated in the absence or presence of several concentrations of AFA extract (1-50 nM), PC (10-1000 nM), PCB (10-1000 nM) and MAA (1-10 μM) in prewarmed 37° C. buffered Hanks' solution. After 30 min of pre-incubation, L-glutamate was added from concentrated solutions to the final concentration indicated 100 μM plus 10 μM glycine. […]
Apoptosis was assessed by staining the nuclei of cells with DAPI (50), a membrane-permeable fluorescent dye that binds DNA and allows quantification of apoptotic neurons, i.e., neurons displaying fragmented or condensed nuclei. […] Cells were scored for chromatin condensation by fluorescence microscopy, using a fluorescein filter (330-380 excitation; 30× magnification). Total and apoptotic nuclei were counted. In all cases, approximately 600-1,000 cells were counted per well by an operator blind to the protocol design. Measurements from individual cultures were performed in duplicate and results are expressed as the mean S.E.M. values for the number of culture preparations indicated. […]

Molecule | Inhibition type [1] | IC50 [1] | Ki [1] | amount lowering apoptosis below the control level [2]
Oc1cc(O)c2c(c1)OC(c1ccc(O)c(O)c1)C(O)C2 (stereo not drawn) [Catechine] | Mixed | 88.6 µM | – | –
Cc1cc(O)c2c(c1)C(=O)c1cc(O)cc(O)c1C2=O [Emodin] | Mixed | 35.4 µM | 15.1 µM | –
COc1ccc(C(C)=O)c(O)c1 [Paeonol] | Competitive | 42.5 µM | 38.2 µM | –
Epicatechine | Mixed | 58.9 µM | 21 µM | –
phycocyanobilin [PCB] | – | – | – | approximately 10 nM
